On the set-up of series [1]: method as in PMID 23077723, PMID 25264825. The conditions noted are these: cited from earlier work.
In series [2] the test system is PDE7. Also noted: method as in PMID 24437940. The conditions noted are these: read-out: PDE7 inhibition IC50; cited from earlier work.
For series [3], the system named is GSK-3. Also noted: method as in PMID 24437940. The conditions noted are these: read-out: GSK-3 inhibition IC50; cited from earlier work.
Series [4] has as its system corpus callosum of cuprizone-fed mice. Put plainly: In vivo remyelination, cuprizone demyelination model. The arrangement: species or system C57/BL6 male mice. As for the experimental part: The protocol used was modified from previously described. Demyelination was induced by feeding 8 weeks old male C57/BL6 mice ad libitum with 0.2% cuprizone (bis-cyclo-hexanone-oxaldihydrazone; Sigma) mixed with milled chow (Altromin) for 5 weeks. A control group was maintained in the same conditions but fed with the chow without cuprizone. After cuprizone withdrawal, mice were intraperitoneally injected on 3 alternate days with PDE7-GSK3 inhibitors (VP1.15 or VP3.15; 10 mg/kg of animal) using a solution of the compound (100 mg/mL in DMSO) diluted 1:50 in a solution of 5% Tocrisolve (Tocris, UK) in distilledwater[36] or with the vehicle. 1 week after the cuprizone withdrawal, mice were transcardially perfused with 4% PFA in phosphate buffer. Another group was maintained for 3 weeks after cuprizone withdrawal and injected with 3 doses per week on alternate days of the PDE7-GSK3 inhibitors (10 mg/kg of animal per dose see above) or the vehicle and then perfused. The corpus callosum of three animals per condition was studied. For histological examination, forebrain coronal sections (20 μm) were taken of the rostral part of the corpus callosum as previously described[80][81] and stained with eriochrome cyanine using a standard protocol in order to study the myelin. Briefly, cryosections on glass slides were immersed in acetone for 5 minutes, dried and submerged in eriochrome cyanine solution (Sigma) for 1 hour and then differentiated in 5% (w/v) iron alum for 5–10 minutes, followed by a second differentiation with borax-ferricyanide solution for 5 minutes. The stained area was measured with the Image J software and related to the total analyzed area. For the immunofluorescence analysis, tissue sections were stained with anti-MBP (1:200; Serotec; Cat#MCA4095) for myelin, anti-PDGFRα (1:200; Santa Cruz; Cat#sc338) for OPCs, anti-CC1 (1:100; Calbiochem, Cat#OP80) and anti-GFAP (Glial fibrillary acidic protein; 1:200; Dako; Cat#Z0334) for astrocytes, and tomato lectin (TL; 1:67; Sigma; Cat#L0651) for microglia. Optical images were acquired using an Olympus BX61 microscope and fluorescence images were taken using a DFC480 FX digital camera (Leica) coupled to a Leica DM5000 B microscope or a confocal SP5 resonant scanner (Leica). Myelin staining (with MBP and eriochrome cyanine) and CC1 staining were quantified by taking pictures of non-overlapping fields of coronal sections of the corpus callosum, between the lateral ventricles (2 fields per section, 5–6 sections of each mice; using a x20 objective) and by measuring the fluorescence intensity or blue staining using the Image J software. The number of OPCs per field was also counted in pictures of the midline of the corpus callosum using the x40 objective (4–6 sections per mice). Astrocytes and microglia were evaluated in pictures of the same area of the corpus callosum using the x40 objective and quantified by measuring the area occupied by GFAP or TL staining respectively using the Image J software (4–6 sections per mice). Data were expressed as the mean ± SEM.

Series [5] concerns OPCs. The arrangement: method as in PMID 23661015. The conditions noted are these: cited from earlier work.
The subject of series [6] is cerebellar slices demyelinated with LPC. Put plainly: Ex vivo remyelination in cerebellar slice cultures demyelinated with LPC. The conditions noted are these: 5 μM, 3 days post lesion (3DPL). Format: cell-based, CD1 P7 mice. As to the method:
The protocol used was modified from previously described. CD1 P7 mice were decapitated, and their cerebella were dissected into ice-cold HBSS (Invitrogen). 300 μm sagittal slices of cerebellum were cut using a McIllwain tissue chopper, placed on Millicell-CM organotypic culture inserts (3 slices per insert; Millipore) in a medium containing HBSS:BME: horse serum (1:2:1, Invitrogen), 28 mM D (+) - glucose (Normapur), […] L-Glutamine (Invitrogen) and 100 U/mL penicillin, 0.1 mg/mL streptomycin and 0.25 μg/ml Amphotericin B antibiotic anti-mycotic solution (Sigma) and maintained at 5% CO2 and 37 °C. Medium was changed every two days, and after 7 days in culture, demyelination was induced by addition of 0.5 mg/ml LPC (Sigma) to the medium for 15 h. After that, slices were treated with fresh medium containing PDE7-GSK3 or GSK3 inhibitors (VP1.15, VP3.15 or TDZD8; 5 μM). Cultures were maintained for 1 or 3 days post lesion (DPL), and then fixed for 40 minutes and immunostained with anti-MBP antibodies (myelin basic protein –as a marker of myelin; 1:200; Serotec; Cat#MCA4095) and anti-neurofilament antibody (as a marker of axons; 1:200; Abcam; Cat#ab8135). Fluorescence images were taken on a confocal SP5 resonant scanner (Leica Microsystems) at 1μm intervals in white matter areas at x40 magnification. The photographs were merged and co-localisation of both markers was quantified with Image J software using the colocalization highlighter plugin. This measurement was related to the area occupied by axons (neurofilament staining) and normalized with control values showing the data as the mean normalized myelination index ± SEM. Quantification was made in at least three independent experiments.

Series [7] deals with spinal cord injury models. The arrangement: method as in PMID 21297958, PMID 23077723. The conditions noted are these: spinal cord injury models (as well as EAE); cited from earlier work.
Series [8] has as its system corpus callosum of LPC-injected mice. Description: In vivo remyelination, LPC demyelination model. The conditions noted are these: 10 mg/kg i.p. from 9 dpi. Also noted: species or system C57/BL6 male mice. As to the method:
Anaesthetized 8 week old C57/BL6 male mice were injected with 2 μl of 1% LPC through a hole drilled in the skull at stereotactic coordinates 1.2 mm posterior, 0.5 mm lateral, 1.4 mm deep to the bregma over 4 minutes using a 30-gauge needle attached to a Hamilton syringe, driven by a KD Scientific Nano pump, for 4 minutes to reduce backflow as previously described. At 9 days post injection (dpi), the first intraperitoneal dose of PDE7-GSK3 inhibitors (VP1.15 or VP3.15; 10 mg/kg of animal) was injected using the same solution detailed above for the cuprizone model. Each inhibitor was injected into a group of 10 mice and another group of 10 mice was injected with the vehicle. Two days after, a second dose was injected (11 dpi) and 5 mice of each group were perfused at 14 dpi with 4% PFA and 2% glutaraldehyde (GTA) in phosphate buffer. The remaining 5 animals of each group received a third injection of inhibitors (15 dpi) and were perfused at 21 dpi. A control group of 3 non-lesioned and non-treated mice was used as control. Fixed brains were post-fixed in 1% GTA for 7 days and then coronally cut into 1 mm slices. The slices containing the injected areas were selected and the area of interest was cut and processed for electron microscopy into a resin (Araldite/TAAB 812 Resin Kit, TAAB) following manufacturer instructions.
In order to detect the injured areas for investigation, sagittal semi-thin sections (1 μm) were cut using an ultramicrotome (Leica) and stained with toluidine blue. Ultra-thin sections (60 nm thick) were cut and stained in uranyl acetate and lead citrate and the ultrastructure was analysed taking images with a GatanOrius CCD camera coupled to a transmission electronic microscope (Philips CM120). The percentage of myelinated fibres and the thickness of myelin sheaths were examined. The mean percentage of myelinated fibres was measured from 10 fields per animal. Grids were overlaid onto the images and all axons intersecting with the grid lines were counted as myelinated or not[83][84]. The thickness of myelin around myelinated fibres was expressed as a g-ratio (axon perimeter divided by myelinated fibre perimeter) using ImageJ by tracing around a minimum of 100 individual fibres per mouse, using a pen and electronic pad (Bamboo pad, Wacom). To select the fibres randomly, a grid composed by 8 μm[2] squares was overlaid onto the images and fibres in alternate squares were measured. Data were expressed as the mean ± SEM.

“Also recorded” adds a separate entry of the source.

As to `OCC/N=c1/nc(-c2ccccc2)n(-c2ccccc2)s1` [VP1.15], in series [1], the emetic side effects result was “without emetic side effects”. For the same compound, the IC50 was 1100 nM in series [2] and 1950 nM in series [3]. In addition, in series [4] (10 mg/kg i.p. on 3 alternate days, 1 week after cuprizone withdrawal), the “myelin staining (eriochrome cyanine) in corpus callosum vs vehicle” value is “significantly higher myelin staining; also recorded: almost complete remyelination”. In addition, the “myelin quantification by MBP immunodetection” value in series [4] (10 mg/kg i.p., after cuprizone withdrawal) is on record as “confirmed these results, with similar effects”. Further, in series [4] (1 week after cuprizone withdrawal), the “microglial activation (TL staining) vs vehicle” value was “Neither VP1.15 nor VP3.15 induced changes”. Also, the “number of OPCs (PDGFRα+ cells) vs vehicle” value in series [4] (one week after cuprizone withdrawal) is reported as “significantly lower number of OPCs”. In addition, the “OPC differentiation (and survival) in vitro” value in series [5] is “enhance OPC differentiation and survival”. In addition, the “remyelination (normalized myelination index)” value in series [6] is given as “increased”. In addition, the immunomodulatory effect entry in series [7] is “immunomodulatory effect”. In series [8], the “thickness of myelin sheaths (G-ratio) vs untreated demyelinated control” value was “increased the thickness”. In series [8] (analysed at 14 or 21 dpi), the “percentage of myelinated callosal fibers vs vehicle” value is listed as “increase”.

What is called IC50 is the point on the concentration scale where inhibition reaches its midpoint.

Source of the values: PMC5335257, “Promoting in vivo remyelination with small molecules: a neuroreparative pharmacological treatment for Multiple Sclerosis” (Scientific Reports, 2017).
